Where two headings read alike, the source gives them in different places.
Target: SARS-CoV-2 3CLpro (Severe acute respiratory syndrome coronavirus 2, UniProt P0DTD1)
Test: biochemical
Format: biochemical
Design: Replicate_1 / Replicate_2 / mean / mean (LOPAC_screen_w_protease): unit not given here
[1] = LOPAC1280 primary screen with protease, 5 µM compound, mean of two replicates
[2] = LOPAC1280 primary screen with protease, 5 µM compound, replicate 1
[3] = LOPAC1280 primary screen with protease, 5 µM compound, replicate 2
[4] = sheet LOPAC_screen_w_protease, LOPAC1280 at 5 µM, mean of two replicates
[5] = sheet LOPAC_screen_w_protease, LOPAC1280 at 5 µM, replicate 1
[6] = sheet LOPAC_screen_w_protease, LOPAC1280 at 5 µM, replicate 2
[7] = sheet LOPAC_screen_w_protease, LOPAC1280 primary screen at 5 µM, with protease, mean of the two replicates
[8] = sheet LOPAC_screen_w_protease, LOPAC1280 primary screen at 5 µM, with protease, replicate 1
[9] = sheet LOPAC_screen_w_protease, LOPAC1280 primary screen at 5 µM, with protease, replicate 2
[10] = sheet LOPAC_screen_w_protease, primary screen at 5 µM, mean of two replicates
[11] = sheet LOPAC_screen_w_protease, primary screen at 5 µM, replicate 1
[12] = sheet LOPAC_screen_w_protease, primary screen at 5 µM, replicate 2
[13] = LOPAC1280 primary screen with protease, 5 µM compound, mean of the two replicates
[14] = sheet LOPAC_screen_w_protease, LOPAC1280 primary screen with protease, 5 µM compound, mean of the two replicates
[15] = sheet LOPAC_screen_w_protease, LOPAC1280 primary screen with protease, 5 µM compound, replicate 1
[16] = sheet LOPAC_screen_w_protease, LOPAC1280 primary screen with protease, 5 µM compound, replicate 2

C=CCn1c(=O)c2c(nc(-c3ccc(S(=O)(=O)O)cc3)n2C)n(C)c1=O
mean (LOPAC_screen_w_protease) [1]: 1.718
Replicate_1 (LOPAC_screen_w_protease) [2]: 2.434
Replicate_2 (LOPAC_screen_w_protease) [3]: 1.002

Cl.NC1(C(=O)O)CC1
mean [4]: 1.084
Replicate_1 [5]: 2.432
Replicate_2 [6]: -0.2629

COc1ccccc1N1CCNCC1.Cl
mean [4]: 0.9162
Replicate_1 [5]: 1.248
Replicate_2 [6]: 0.5839

Cl.Cl.Clc1cccc(N2CCNCC2)c1
mean [7]: 0.4258
Replicate_1 [8]: 0.3435
Replicate_2 [9]: 0.5081

CC1CNCCN1S(=O)(=O)c1cccc2cnccc12.Cl.Cl (centres unmarked)
mean (LOPAC screen with protease) [10]: 12.1111
Replicate_1 (LOPAC screen with protease) [11]: 12.4365
Replicate_2 (LOPAC screen with protease) [12]: 11.7856

Cl.N=C(N)NC(=N)Nc1cccc(Cl)c1
mean (LOPAC_screen_w_protease) [13]: 1.751
Replicate_1 (LOPAC_screen_w_protease) [2]: 2.329
Replicate_2 (LOPAC_screen_w_protease) [3]: 1.173

C[N+]1(C)CCN(c2ccccc2)CC1.[I-]
mean (LOPAC screen with protease) [10]: 7.007
Replicate_1 (LOPAC screen with protease) [11]: 5.351
Replicate_2 (LOPAC screen with protease) [12]: 8.6627

CCCc1c(-c2ccc(O)cc2)nn(-c2ccc(O)cc2)c1-c1ccc(O)cc1
mean [4]: 1.246
Replicate_1 [5]: 3.0422
Replicate_2 [6]: -0.5503

Cl.NCC(O)C1CCCCCCC1 (centres unmarked)
mean [4]: 1.1388
Replicate_1 [5]: 2.0547
Replicate_2 [6]: 0.2229

CSc1nc(N)c2ncn([C@@H]3O[C@H](COP(=O)(O)OP(=O)(O)O)[C@@H](O)[C@H]3O)c2n1.[Na].[Na].[Na]
mean [14]: 4.674
Replicate_1 [15]: 4.609
Replicate_2 [16]: 4.739

Br.Br.N=C(N)SCCN
mean (LOPAC_screen_w_protease) [13]: 2.032
Replicate_1 (LOPAC_screen_w_protease) [2]: 2.956
Replicate_2 (LOPAC_screen_w_protease) [3]: 1.108

C[N+](C)(C)CCC(=O)c1cccc2ccccc12.[I-]
mean (LOPAC screen with protease) [10]: 102.503
Replicate_1 (LOPAC screen with protease) [11]: 102.129
Replicate_2 (LOPAC screen with protease) [12]: 102.878

O=[N+]([O-])c1ccc(O[C@@H]2O[C@H](CO)[C@@H](O)[C@H](O)[C@H]2F)c([N+](=O)[O-])c1
mean [7]: 0.5921
Replicate_1 [8]: 1.883
Replicate_2 [9]: -0.6983

NC(=O)COc1c(F)cc(SCCNS(=O)(=O)c2ccccc2)cc1F
mean (sheet LOPAC_screen_w_protease, LOPAC1280 primary screen at 5 µM, with protease, mean of two replicates): -1.413
Replicate_1 [8]: -1.082
Replicate_2 [9]: -1.744

Cc1nnc2ccc(-c3cccc(C(F)(F)F)c3)nn12
mean [14]: 4.5531
Replicate_1 [15]: 2.841
Replicate_2 [16]: 6.265

CN1C2CCC1CC(OC(=O)c1c[nH]c3ccccc13)C2.Cl (centres unmarked)
mean [7]: 0.5358
Replicate_1 [8]: 1.053
Replicate_2 [9]: 0.01899

C[C@]12CC[C@@H](O)C[C@@H]1CC[C@@H]1[C@@H]2CC[C@]2(C)[C@@H](C(=O)CO)CC[C@@H]12
mean [14]: 5.219
Replicate_1 [15]: 2.641
Replicate_2 [16]: 7.796

Cl.NCCc1ccc(S(=O)(=O)F)cc1
mean [7]: 0.6027
Replicate_1 [8]: 1.03
Replicate_2 [9]: 0.1751

CN1C2CCC1CC(OC(c1ccccc1)c1ccc(Cl)cc1)C2.Cl (centres unmarked)
Replicate_1 (LOPAC_screen_w_protease): 2.149
Replicate_2 (LOPAC_screen_w_protease): 0.9226
mean (LOPAC_screen_w_protease): 1.536

O=C(O)c1cc([N+](=O)[O-])ccc1NCCCc1ccccc1
Replicate_1 (LOPAC screen with protease): 5.784
Replicate_2 (LOPAC screen with protease): 7.243
mean (LOPAC screen with protease): 6.5136

COc1ccc2[nH]c3c(c2c1)CCNC3
mean [7]: 0.4216
Replicate_1 [8]: 0.4542
Replicate_2 [9]: 0.3889

Oc1cc(-c2ccccc2)nc2nc(Cl)ccc12
mean (LOPAC_screen_w_protease) [13]: 1.995
Replicate_1 (LOPAC_screen_w_protease) [2]: 0.8933
Replicate_2 (LOPAC_screen_w_protease) [3]: 3.097

Nc1ncnc2c1c(-c1ccc(Oc3ccccc3)cc1)cn2C1CCCC1
mean [7]: 0.6123
Replicate_1 [8]: 0.3054
Replicate_2 [9]: 0.9192

COCc1nc2c([nH]1)c(=O)n(C)c(=O)n2CC(C)C
mean [14]: 5.36
Replicate_1 [15]: 6.304
Replicate_2 [16]: 4.4152

Cl.Nc1c2c(nc3ccccc13)CCCC2
Replicate_1: 1.645
Replicate_2: 0.8036
mean: 1.2241

CC1CCCC=CC2CC(O)CC2C(O)C=CC(=O)O1 (centres unmarked)
mean (LOPAC_screen_w_protease) [1]: 1.348
Replicate_1 (LOPAC_screen_w_protease) [2]: 0.7493
Replicate_2 (LOPAC_screen_w_protease) [3]: 1.9466

Br.COc1ccc2c(c1)[C@]13CCCC[C@@H]1[C@H](C2)N(C)CC3.O
mean (LOPAC_screen_w_protease) [13]: 1.973
Replicate_1 (LOPAC_screen_w_protease) [2]: 1.427

O=C(O)CN(CCOCCOCCN(CC(=O)O)CC(=O)O)CC(=O)O
Replicate_1: 4.424
Replicate_2: 0.4872
mean: 2.456

NC(N)=Nc1ccc2[nH]c3c(c2c1)C[C@@]1(O)[C@H]2Cc4ccc(O)c5c4[C@@]1(CCN2CC1CC1)[C@H]3O5.O=C(O)C(F)(F)F.O=C(O)C(F)(F)F
mean [14]: 5.687
Replicate_1 [15]: 7.859
Replicate_2 [16]: 3.515

Cl.O[Si](CCCN1CCCCC1)(c1ccc(F)cc1)C1CCCCC1 (centres unmarked)
mean [4]: 1.239
Replicate_1 [5]: 2.5476
Replicate_2 [6]: -0.06894

C[C@@H](N)Cc1cnc[nH]1.Cl.Cl
Replicate_1: 2.14
Replicate_2: -0.08051
mean: 1.03

CCc1c(C(=O)OC)ncc2[nH]c3cc(OC)c(OC)cc3c12
mean (LOPAC_screen_w_protease) [13]: 2.118
Replicate_1 (LOPAC_screen_w_protease) [2]: 4.217
Replicate_2 (LOPAC_screen_w_protease) [3]: 0.01945

Cl.NCCCCNS(=O)(=O)c1ccc2c(Cl)cccc2c1
mean [7]: 0.6799
Replicate_1 [8]: 0.88
Replicate_2 [9]: 0.4798

Cl.O=C(CCCN1CCC2(CC1)C(=O)N(CCc1ccc(N=C=S)cc1)CN2c1ccccc1)c1ccc(F)cc1
mean [14]: 5.051
Replicate_1 [15]: 5.654
Replicate_2 [16]: 4.448

CNCCc1c[nH]c2ccc(O)cc12.O=C(O)C(=O)O
mean [14]: 5.527
Replicate_1 [15]: 5.7
Replicate_2 [16]: 5.354

Cc1ccc(S(=O)(=O)N[C@@H](Cc2ccccc2)C(=O)CCl)cc1
mean (LOPAC screen with protease) [10]: 61.4515
Replicate_1 (LOPAC screen with protease) [11]: 61.5523
Replicate_2 (LOPAC screen with protease) [12]: 61.3507

CCCCCCN(CCCCCC)C(=O)Cc1c(-c2ccc(F)cc2)[nH]c2ccccc12
mean [14]: 4.628
Replicate_1 [15]: 5.9351
Replicate_2 [16]: 3.32

CC(COc1ccc(/C=C/c2ccccc2)cc1)[N+](C)(C)C.[I-] (centres unmarked)
mean [14]: 5.814
Replicate_1 [15]: 7.703
Replicate_2 [16]: 3.926

Cc1ccc(S(=O)(=O)N[C@@H](CCCCN)C(=O)CCl)cc1.Cl
mean (LOPAC screen with protease) [10]: 20.7427
Replicate_1 (LOPAC screen with protease) [11]: 21.9131
Replicate_2 (LOPAC screen with protease) [12]: 19.5724

CC(Cc1ccc(O)c(O)c1)C(C)Cc1ccc(O)c(O)c1 (centres unmarked)
mean (LOPAC screen with protease) [10]: 97.9088
Replicate_1 (LOPAC screen with protease) [11]: 97.7665
Replicate_2 (LOPAC screen with protease) [12]: 98.0511

Cl.NOCC(=O)O.NOCC(=O)O
mean [4]: 1.195
Replicate_1 [5]: 1.0596
Replicate_2 [6]: 1.33

Br.CCCN1CCc2cc(O)cc3c2[C@H]1Cc1ccc(O)c(O)c1-3
mean (LOPAC screen with protease) [10]: 94.9167
Replicate_1 (LOPAC screen with protease) [11]: 94.651
Replicate_2 (LOPAC screen with protease) [12]: 95.1824

Br.CN1CCc2cc(O)cc3c2[C@H]1Cc1ccc(O)c(O)c1-3
mean (LOPAC screen with protease) [10]: 100.809
Replicate_1 (LOPAC screen with protease) [11]: 99.6837
Replicate_2 (LOPAC screen with protease) [12]: 101.934

N[C@H](C(=O)O)[C@H]1C[C@@H]1C(=O)O
Replicate_1: 1.266
Replicate_2: 1.079
mean: 1.172

Reference: paper PMC7587356, “High-Throughput Screening for Inhibitors of the SARS-CoV-2 Protease Using a FRET-Biosensor” (Molecules, 2020)
